# From patent publication US20240342292A1, “Compounds for the Degradation of EGFR Kinase” (BeiGene Switzerland GmbH, priority 2021, published 2024)
# What was measured:
# L858R/T790M/C797S EGFR = target: T1, L858R/T790M/C797S EGFR (Homo sapiens, UniProt P00533, C797S/L858R/T790M); assay: EGFR degradation HTRF assay in H1975-clone #25 (LTC) cells; format: cell-based; conditions: 16h treatment; for DC50: H1975 # 25-LTC (L858R/T790M/C797S), HTRF; for Dmax: NCI-H1975, H1975 # 25-LTC (L858R/T790M/C797S), maximum percentage of degradation
# T1 construct: expressed in transfected cells; host or cells: H1975 clone #25 (lentiviral over-expression, endogenous EGFR knocked out by sgRNA)
# T1 sequence (P00533 25-1210 T790M/C797S/L858R): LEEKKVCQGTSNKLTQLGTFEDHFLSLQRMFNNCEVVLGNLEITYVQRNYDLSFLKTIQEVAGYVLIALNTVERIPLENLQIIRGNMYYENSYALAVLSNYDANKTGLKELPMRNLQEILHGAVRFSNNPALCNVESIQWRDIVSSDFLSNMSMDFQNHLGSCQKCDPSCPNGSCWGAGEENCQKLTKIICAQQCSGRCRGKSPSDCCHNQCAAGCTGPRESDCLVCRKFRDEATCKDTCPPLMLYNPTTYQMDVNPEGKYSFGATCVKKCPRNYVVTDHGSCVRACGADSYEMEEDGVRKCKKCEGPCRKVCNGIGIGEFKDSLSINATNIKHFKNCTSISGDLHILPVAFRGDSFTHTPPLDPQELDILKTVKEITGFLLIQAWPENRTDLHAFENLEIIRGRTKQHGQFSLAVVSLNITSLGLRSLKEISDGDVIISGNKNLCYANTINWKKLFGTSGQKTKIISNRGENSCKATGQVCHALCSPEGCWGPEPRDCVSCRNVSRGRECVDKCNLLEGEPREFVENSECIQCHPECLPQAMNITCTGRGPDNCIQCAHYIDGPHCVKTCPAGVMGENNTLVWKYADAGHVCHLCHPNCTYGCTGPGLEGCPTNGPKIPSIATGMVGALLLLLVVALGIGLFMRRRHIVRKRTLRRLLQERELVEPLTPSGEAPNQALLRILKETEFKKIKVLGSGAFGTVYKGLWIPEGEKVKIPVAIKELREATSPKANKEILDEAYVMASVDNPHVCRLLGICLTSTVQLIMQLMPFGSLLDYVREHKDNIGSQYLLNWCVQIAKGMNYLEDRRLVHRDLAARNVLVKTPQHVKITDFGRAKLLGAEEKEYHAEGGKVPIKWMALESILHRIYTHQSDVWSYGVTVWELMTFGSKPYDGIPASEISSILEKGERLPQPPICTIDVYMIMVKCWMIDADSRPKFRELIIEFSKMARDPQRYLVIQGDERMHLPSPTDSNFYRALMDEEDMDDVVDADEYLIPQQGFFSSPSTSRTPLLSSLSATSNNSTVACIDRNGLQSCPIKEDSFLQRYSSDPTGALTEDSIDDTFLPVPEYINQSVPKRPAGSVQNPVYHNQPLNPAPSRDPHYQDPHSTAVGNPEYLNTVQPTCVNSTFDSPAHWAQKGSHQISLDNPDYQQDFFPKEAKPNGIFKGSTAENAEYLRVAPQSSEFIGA
# Outline: (§1)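 Each homozygous H1975 clone was dosed for 16 h at 37 °C with an 8-dose, 5-fold series (top 10 uM, 0.2% DMSO). An HTRF antibody pair then measured EGFR in lysates, and a sigmoidal fit of percent inhibition gave DC50.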
# Del19/T790M/C797S EGFR = assay: EGFR degradation HTRF assay in H1975-clone #28 (DTC) cells; format: cell-based; conditions: H1975 # 28 DTC (Del19/T790M/C797S), 16h treatment; for DC50: HTRF; for Dmax (%): maximum percentage of degradation
# Outline: as §1
Compound,DC50 (L858R/T790M/C797S EGFR) [nM],Dmax (L858R/T790M/C797S EGFR) [%],DC50 (Del19/T790M/C797S EGFR) [nM],Dmax (%) (Del19/T790M/C797S EGFR)
"Cc1cc2cc(n1)-c1cnn(C)c1OCCC[C@@H](C)CN1/C(=N/C2=O)Nc2ccc(C(=O)N(C)C3CCN(CCc4cccc5c4C(C)(C)C(=O)N5[C@H]4CCC(=O)NC4=O)CC3)cc21 [Example 379, (R,E)-N-(1-(2-(1-((S)-2,6-dioxopiperidin-3-yl)-3,3-dimethyl-2-oxoindolin-4-yl)ethyl)piperidin-4-yl)-N,1^1,2^6,7-tetramethyl-3-oxo-5^2,5^3-dihydro-1^1H,5^1H-11-oxa-4-aza-5(2,1)-benzo[d]imidazola-2(2,4)-pyridina-1(4,5)-pyrazolacycloundecaphane-5^6-carboxamide]",0.503,80.9,0.682,67.89
"Cc1cc2cc(n1)-c1cnn(C)c1OCCC[C@@H](C)CN1/C(=N/C2=O)Nc2ccc(C(=O)N3CCC(N(C)CCc4cc(F)c([C@H]5CCC(=O)NC5=O)c(F)c4)CC3)cc21 [Example 299, (R)-3-(2,6-difluoro-4-(2-(methyl(1-((R,E)-1^1,2^6,7-trimethyl-3-oxo-5^2,5^3-dihydro-1^1H,5^1H-11-oxa-4-aza-5(2,1)-benzo[d]imidazola-2(2,4)-pyridina-1(4,5)-pyrazolacycloundecaphane-5^6-carbonyl)piperidin-4-yl)amino)ethyl)phenyl)piperidine-2,6-dione]",0.468,86.9,0.611,66.17
"Cc1cc2cc(n1)-c1cnn(C)c1OCCC[C@@H](C)CN1/C(=N/C2=O)Nc2ccc(C(=O)N3CC[C@H](NCCc4cc(F)c([C@H]5CCC(=O)NC5=O)c(F)c4)C3)cc21 [Example 298, (R)-3-(2,6-difluoro-4-(2-(((S)-1-((R,E)-1^1,2^6,7-trimethyl-3-oxo-5^2,5^3-dihydro-1^1H,5^1H-11-oxa-4-aza-5(2,1)-benzo[d]imidazola-2(2,4)-pyridina-1(4,5)-pyrazolacycloundecaphane-5^6-carbonyl)pyrrolidin-3-yl)amino)ethyl)phenyl)piperidine-2,6-dione]",1.14,90.1,1.2,66.58
"Cc1cc2cc(n1)-c1cnn(C)c1OCCC[C@@H](C)CN1/C(=N/C2=O)Nc2ccc(N3CCN([C@H]4C[C@H](Nc5cc(F)c([C@H]6CCC(=O)NC6=O)c(F)c5)C4)CC3)cc21 (single isomer, unassigned) [Example 444]",2.1,89,1.3,82.11
"COC[C@@H]1CN(c2cc(F)c([C@H]3CCC(=O)NC3=O)c(F)c2)CCN1C(=O)C1CCN(c2ccc3c(c2)N2C[C@H](C)CCCOc4c(cnn4C)-c4cc(cc(C)n4)C(=O)/N=C/2N3)CC1 [Example 357, (R)-3-(2,6-difluoro-4-((S)-3-(methoxymethyl)-4-(1-((R,E)-1^1,2^6,7-trimethyl-3-oxo-5^2,5^3-dihydro-1^1H,5^1H-11-oxa-4-aza-5(2,1)-benzo[d]imidazola-2(2,4)-pyridina-1(4,5)-pyrazolacycloundecaphane-5^6-yl)piperidine-4-carbonyl)piperazin-1-yl)phenyl)piperidine-2,6-dione]",0.824,87.6,0.903,73.73
"Cc1cc2cc(n1)-c1cnn(C)c1OCCC[C@@H](C)CN1/C(=N/C2=O)Nc2ccc(N3CCC(C(=O)N4CC(Nc5cc(F)c([C@H]6CCC(=O)NC6=O)c(F)c5)C4)CC3)cc21 [Example 404, (R)-3-(2,6-difluoro-4-((1-(1-((R,E)-1^1,2^6,7-trimethyl-3-oxo-5^2,5^3-dihydro-1^1H,5^1H-li-oxa-4-aza-5(2,1)-benzo[d]imidazola-2(2,4)-pyridina-1(4,5)-pyrazolacycloundecaphane-5^4-yl)piperidine-4-carbonyl)azetidin-3-yl)amino)phenyl)piperidine-2,6-dione]",0.94,88.5,1.69,83.57
"Cc1cc2cc(n1)-c1cnn(C)c1OCCC[C@@H](C)CN1/C(=N/C2=O)Nc2ccc(N3CC4(CCN(CC5CN(c6cc(F)c([C@H]7CCC(=O)NC7=O)c(F)c6)C5)CC4)CC3=O)cc21 [Example 406, (R)-3-(2,6-difluoro-4-(3-((3-oxo-2-((R,E)-1^1,2^6,7-trimethyl-3-oxo-5^2,5^3-dihydro-1^1H,5^1H-11-oxa-4-aza-5(2,1)-benzo[d]imidazola-2(2,4)-pyridina-1(4,5)-pyrazolacycloundecaphane-5^6-yl)-2,8-diazaspiro[4.5]decan-8-yl)methyl)azetidin-1-yl)phenyl)piperidine-2,6-dione]",1.65,89.6,1.09,85.15
"Cc1cc2cc(n1)-c1c(C)nn(C)c1OCCC[C@@H](C)CN1/C(=N/C2=O)Nc2ccc(C(=O)N(C)C3CCN(CCc4cc(F)c([C@H]5CCC(=O)NC5=O)c(F)c4)CC3)cc21 [Example 233, (R,E)-N-(1-(4-((R)-2,6-dioxopiperidin-3-yl)-3,5-difluorophenethyl)piperidin-4-yl)-N,1^1,1^3,2^6,7-penta methyl-3-oxo-5^2,5^3-dihydro-1^1H,5^1H-11-oxa-4-aza-5(2,1)-benzo[d]imidazola-2(2,4)-pyridina-1(4,5)-pyrazolacycloundecaphane-5^6-carboxamide]",1.05,91.2,0.806,86.73
"Cc1cc2cc(n1)-c1cnn(C)c1OCCC[C@@H](C)CN1/C(=N/C2=O)Nc2ccc(C(=O)N[C@H]3CCN(CCc4cc(F)c([C@H]5CCC(=O)NC5=O)c(F)c4)[C@@H](C)C3)cc21 [Example 270, (R,E)-N—((2S,4S)-1-(4-((R)-2,6-dioxopiperidin-3-yl)-3,5-difluorophenethyl)-2-methylpiperidin-4-yl)-1^1,2^6,7-trimethyl-3-oxo-5^2,5^3-dihydro-1^1H,5^1H-11-oxa-4-aza-5(2,1)-benzo[d]imidazola-2(2,4)-pyridina-1(4,5)-pyrazolacycloundecaphane-5^6-carboxamide]",0.429,92.5,0.614,81.16
"Cc1cc2cc(n1)-c1cnn(C)c1OCCC[C@@H](C)CN1/C(=N/C2=O)Nc2ccc(N3CCC(N4CC(Nc5cc(F)c([C@H]6CCC(=O)NC6=O)c(F)c5)C4)CC3)cc21 [Example 392, (R)-3-(2,6-difluoro-4-((1-(1-((R,E)-1^1,2^6,7-trimethyl-3-oxo-5^2,5^3-dihydro-1^1H,5^1H-11-oxa-4-aza-5(2,1)-benzo[d]imidazola-2(2,4)-pyridina-1(4,5)-pyrazolacycloundecaphane-5^6-yl)piperidin-4-yl)azetidin-3-yl)amino)phenyl)piperidine-2,6-dione]",1.29,86.7,0.821,75.48
"Cc1cc2cc(n1)-c1cnn(C)c1OCCC[C@@H](C)CN1/C(=N/C2=O)Nc2ccc(C3CCN(C(=O)C4CN(c5cc(F)c([C@H]6CCC(=O)NC6=O)c(F)c5)C4)CC3)cc21 [Example 158, (R)-3-(2,6-difluoro-4-(3-(4-((R,E)-1^1,2^6,7-trimethyl-3-oxo-5^2,5-dihydro-1^1H,5^1H-11-oxa-4-aza-5(2, 1)-benzo[d]imidazola-2(2,4)-pyridina-1(4,5)-pyrazolacycloundecaphane-5^6-yl)piperidine-1-carbonyl)azetidin-1-yl)phenyl)piperidine-2,6-dione]",0.852,82.2,0.868,72.14
"Cc1cc2cc(n1)-c1cnn(C)c1OCCC[C@@H](C)CN1/C(=N/C2=O)Nc2ccc(CN3CCN(C(=O)[C@@H]4CCN(c5cc(F)c([C@H]6CCC(=O)NC6=O)c(F)c5)C4)C[C@H]3C)cc21 [Example 100, (R)-3-(2,6-difluoro-4-((R)-3-((R)-3-methyl-4-(((R,E)-1^1,2^6,7-trimethyl-3-oxo-5^2,5^3-dihydro-1^1H,5^1H -11-oxa-4-aza-5(2,1)-benzo[d]imidazola-2(2,4)-pyridina-(4,5)-pyrazolacycloundecaphane-5^6-yl)methyl)piperazine-1-carbonyl)pyrrolidin-1-yl)phenyl)piperidine-2,6-dione]",1,85.5,0.7,72.8
"Cc1cc2cc(n1)-c1cnn(C)c1OCCC[C@@H](C)CN1/C(=N/C2=O)Nc2ccc(CN3CCN(C(=O)[C@@H]4CCN(c5ccc(F)c6c5n(C)c(=O)n6C5CCC(=O)NC5=O)C4)CC3)cc21 (stereo partly drawn) [Example 211, 3-(7-fluoro-3-methyl-2-oxo-4-((R)-3-(4-(((R,E)-1^1,2^6,7-trimethyl-3-oxo-5^2,5^3-dihydro-1^1H,5^1H-11-oxa-4-aza-5(2,1)-benzo[d]imidazola-2(2,4)-pyridina-1(4,5)-pyrazolacycloundecaphane-5^6-yl)methyl)piperazine-1-carbonyl)pyrrolidin-1-yl)-2,3-dihydro-1H-benzo[d]imidazol-1-yl)piperidine-2,6-dione]",0.852,85.1,0.901,75.24
"Cc1cc2cc(n1)-c1cnn(C)c1OCCC[C@@H](C)CN1/C(=N/C2=O)Nc2ccc(N3CCN(C4CCN(c5cc(F)c([C@H]6CCC(=O)NC6=O)c(F)c5)CC4)C[C@@H]3C)cc21 [Example 383, (R)-3-(2,6-difluoro-4-(4-((S)-3-methyl-4-((R,E)-1^1,2^6,7-trimethyl-3-oxo-5^2,5^3-dihydro-1^1H,5^1H-11-oxa-4-aza-5(2,1)-benzo[d]imidazola-2(2,4)-pyridina-1(4,5)-pyrazolacycloundecaphane-5-yl)piperazin-1-yl)piperidin-1-yl)phenyl)piperidine-2,6-dione]",1.34,88.8,2.19,73.18
